In ChEMBL document CHEMBL4330058, “Discovery of novel anti-angiogenesis agents. Part 10: Multi-target inhibitors of VEGFR-2, Tie-2 and EphB4 incorporated with 1,2,3-triazol” (Eur J Med Chem, 2019):

Legend:
[1] = target: Vascular endothelial growth factor receptor 2 (Homo sapiens, UniProt P35968); test: Inhibition of VEGFR2 (unknown origin) after 1 hr by ADP-Glo reagent based luminescent assay
EA.hy 926 = test: Anti-angiogenic activity against human EAhy926 after 24 hrs by CCK-8 assay; format: functional, cell-based; conditions: EA.hy 926, 24 h
LoVo = test: Antiproliferative activity against human LoVo cells
SMMC-7721 = test: Antiproliferative activity against human SMMC7721 cells
HeLa = test: Antiproliferative activity against human HeLa cells
A-431 = test: Antiproliferative activity against human A431 cells
PANC-1 = test: Antiproliferative activity against human PANC1 cells
A549 = test: Antiproliferative activity against human A549 cells
MCF7 = test: Antiproliferative activity against human MCF7 cells
Ephrin type-B receptor 4 = target: T1, Ephrin type-B receptor 4 (Homo sapiens, UniProt P54760); test: Inhibition of EPHB4 (unknown origin) after 4 hrs by ADP-Glo reagent based luminescent assay
T1 sequence (P54760 whole entry): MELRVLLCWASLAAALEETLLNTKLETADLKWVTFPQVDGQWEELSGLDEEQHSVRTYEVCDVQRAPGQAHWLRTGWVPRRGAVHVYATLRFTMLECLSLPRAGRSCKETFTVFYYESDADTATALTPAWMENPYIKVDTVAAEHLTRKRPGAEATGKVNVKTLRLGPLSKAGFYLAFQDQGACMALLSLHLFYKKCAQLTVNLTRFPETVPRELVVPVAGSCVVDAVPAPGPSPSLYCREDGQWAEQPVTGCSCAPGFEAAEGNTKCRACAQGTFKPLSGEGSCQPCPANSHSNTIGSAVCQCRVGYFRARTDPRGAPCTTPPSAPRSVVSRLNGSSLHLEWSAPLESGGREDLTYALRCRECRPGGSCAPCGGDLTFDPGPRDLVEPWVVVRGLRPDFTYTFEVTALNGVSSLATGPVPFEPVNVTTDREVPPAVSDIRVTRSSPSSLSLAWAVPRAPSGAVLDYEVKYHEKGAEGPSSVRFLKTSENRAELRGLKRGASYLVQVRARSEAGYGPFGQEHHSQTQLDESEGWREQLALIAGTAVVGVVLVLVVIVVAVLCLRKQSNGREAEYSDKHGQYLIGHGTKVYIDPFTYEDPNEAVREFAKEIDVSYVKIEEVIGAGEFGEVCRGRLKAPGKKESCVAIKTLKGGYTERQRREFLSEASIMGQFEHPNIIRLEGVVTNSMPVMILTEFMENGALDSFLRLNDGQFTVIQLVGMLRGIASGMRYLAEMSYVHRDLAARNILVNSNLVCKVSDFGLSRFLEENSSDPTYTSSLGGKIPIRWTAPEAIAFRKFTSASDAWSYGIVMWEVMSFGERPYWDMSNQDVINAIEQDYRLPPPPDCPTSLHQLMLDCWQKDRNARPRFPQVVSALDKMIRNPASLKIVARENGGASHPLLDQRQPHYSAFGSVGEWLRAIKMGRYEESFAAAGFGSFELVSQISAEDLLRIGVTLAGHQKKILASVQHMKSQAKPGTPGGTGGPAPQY

Angiopoietin-1 receptor = Angiopoietin-1 receptor (Homo sapiens, UniProt Q02763); test: Inhibition of TIE2 (unknown origin) after 4 hrs by ADP-Glo reagent based luminescent assay
Sequence of Angiopoietin-1 receptor (Q02763 whole entry): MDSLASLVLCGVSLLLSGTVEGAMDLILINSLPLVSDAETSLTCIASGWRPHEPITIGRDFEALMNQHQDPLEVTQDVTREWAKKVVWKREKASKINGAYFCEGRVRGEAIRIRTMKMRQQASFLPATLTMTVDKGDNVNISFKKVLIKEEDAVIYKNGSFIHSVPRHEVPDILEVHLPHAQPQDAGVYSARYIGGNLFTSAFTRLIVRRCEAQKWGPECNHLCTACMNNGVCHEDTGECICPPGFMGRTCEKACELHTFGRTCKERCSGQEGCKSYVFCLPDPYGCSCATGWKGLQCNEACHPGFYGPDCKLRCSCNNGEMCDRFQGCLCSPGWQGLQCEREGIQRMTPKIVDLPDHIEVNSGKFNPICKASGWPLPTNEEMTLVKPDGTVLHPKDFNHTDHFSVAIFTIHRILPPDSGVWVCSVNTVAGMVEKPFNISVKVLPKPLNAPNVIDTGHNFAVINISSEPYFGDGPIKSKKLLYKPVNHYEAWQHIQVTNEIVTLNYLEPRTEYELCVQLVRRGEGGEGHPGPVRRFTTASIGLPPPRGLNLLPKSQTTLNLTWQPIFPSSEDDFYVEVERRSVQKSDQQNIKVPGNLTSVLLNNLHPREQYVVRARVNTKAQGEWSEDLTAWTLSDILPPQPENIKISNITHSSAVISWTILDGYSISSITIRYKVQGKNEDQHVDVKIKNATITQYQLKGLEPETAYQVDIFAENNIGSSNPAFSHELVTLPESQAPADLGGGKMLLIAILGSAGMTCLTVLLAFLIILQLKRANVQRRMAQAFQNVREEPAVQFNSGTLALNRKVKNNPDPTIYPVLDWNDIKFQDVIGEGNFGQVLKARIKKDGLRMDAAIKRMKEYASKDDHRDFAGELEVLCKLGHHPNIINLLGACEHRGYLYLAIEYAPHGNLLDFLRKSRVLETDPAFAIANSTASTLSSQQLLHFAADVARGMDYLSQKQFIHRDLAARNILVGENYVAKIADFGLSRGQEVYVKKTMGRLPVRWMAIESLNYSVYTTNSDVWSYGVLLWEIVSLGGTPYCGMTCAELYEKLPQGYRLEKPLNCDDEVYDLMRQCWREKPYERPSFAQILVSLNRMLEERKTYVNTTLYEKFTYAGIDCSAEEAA

Sequence of Vascular endothelial growth factor receptor 2 (P35968 whole entry): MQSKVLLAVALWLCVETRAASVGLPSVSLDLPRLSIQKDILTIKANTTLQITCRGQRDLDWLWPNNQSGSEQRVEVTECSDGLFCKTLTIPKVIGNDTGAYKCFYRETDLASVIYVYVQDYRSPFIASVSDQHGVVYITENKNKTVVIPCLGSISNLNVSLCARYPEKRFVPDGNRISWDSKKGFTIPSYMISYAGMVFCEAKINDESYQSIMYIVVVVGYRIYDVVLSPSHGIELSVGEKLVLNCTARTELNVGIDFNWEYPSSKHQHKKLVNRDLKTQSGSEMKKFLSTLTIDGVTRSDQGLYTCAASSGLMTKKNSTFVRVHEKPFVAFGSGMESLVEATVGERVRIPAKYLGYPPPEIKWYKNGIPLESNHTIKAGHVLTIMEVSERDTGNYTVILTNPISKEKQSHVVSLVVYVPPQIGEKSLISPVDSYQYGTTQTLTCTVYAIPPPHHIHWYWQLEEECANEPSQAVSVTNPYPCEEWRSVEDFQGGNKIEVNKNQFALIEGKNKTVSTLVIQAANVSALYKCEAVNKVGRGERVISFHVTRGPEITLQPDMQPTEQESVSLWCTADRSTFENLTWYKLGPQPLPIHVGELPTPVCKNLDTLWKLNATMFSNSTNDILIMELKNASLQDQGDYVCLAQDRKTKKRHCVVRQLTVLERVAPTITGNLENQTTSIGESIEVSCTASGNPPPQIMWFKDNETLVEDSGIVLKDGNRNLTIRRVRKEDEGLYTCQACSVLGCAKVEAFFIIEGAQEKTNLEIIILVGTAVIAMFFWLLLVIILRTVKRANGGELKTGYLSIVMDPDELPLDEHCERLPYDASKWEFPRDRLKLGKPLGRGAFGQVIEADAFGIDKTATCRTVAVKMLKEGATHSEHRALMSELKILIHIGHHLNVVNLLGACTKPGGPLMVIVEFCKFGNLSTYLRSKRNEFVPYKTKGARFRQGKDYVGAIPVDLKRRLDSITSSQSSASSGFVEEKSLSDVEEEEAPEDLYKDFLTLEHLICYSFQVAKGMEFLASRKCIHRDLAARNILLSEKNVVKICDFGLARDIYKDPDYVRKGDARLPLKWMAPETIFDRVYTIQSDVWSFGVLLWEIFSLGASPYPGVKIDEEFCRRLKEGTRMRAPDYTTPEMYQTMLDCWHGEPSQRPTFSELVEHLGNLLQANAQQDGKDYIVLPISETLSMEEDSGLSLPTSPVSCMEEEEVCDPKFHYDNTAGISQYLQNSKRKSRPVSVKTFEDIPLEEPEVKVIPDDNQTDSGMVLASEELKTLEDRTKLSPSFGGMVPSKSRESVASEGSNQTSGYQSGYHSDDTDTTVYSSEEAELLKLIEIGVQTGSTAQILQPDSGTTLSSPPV

Row | SMILES | IC50 (EA.hy 926) | IC50 (Ephrin type-B receptor 4) | also measured
1 | COc1ccc(-c2ccc(Cn3cc(-c4ccccc4F)nn3)cc2)cn1 | 708000 nM |  | IC50 [1]: > 1000 nM
2 | COc1ccc(-c2ccc(Cn3cc(-c4cccc(N)c4)nn3)cc2)cn1 | 14500 nM |  | IC50 (LoVo): 100 nM; IC50 (SMMC-7721): 240 nM; IC50 (HeLa): 290 nM; IC50 (A-431): 70 nM; IC50 (PANC-1): 490 nM; IC50 (A549): 180 nM; IC50 (MCF7): 350 nM
3 | FC(F)(F)c1cccc(-c2cn(Cc3ccc(-c4cccnc4)cc3)nn2)c1 | 137000 nM | > 1000 nM | IC50 [1]: > 1000 nM
4 | Clc1cccc(-c2cn(Cc3ccc(-c4cccnc4)cc3)nn2)c1 | 431000 nM |  | 
5 | FC(F)(F)c1ccc(-c2cn(Cc3ccc(-c4cccnc4)cc3)nn2)cc1 | 170000 nM | > 1000 nM | IC50 (Angiopoietin-1 receptor): > 1000 nM
6 | COc1ccc(-c2ccc(Cn3cc(-c4ccc(C)cc4)nn3)cc2)cn1 | 678000 nM |  | 
7 | COc1ccc(-c2ccc(Cn3cc(-c4cccc(Cl)c4)nn3)cc2)cn1 | 440000 nM |  | 
8 | Fc1ccccc1-c1cn(Cc2ccc(-c3cccnc3)cc2)nn1 | 9280 nM |  | 
9 | Nc1cccc(-c2cn(Cc3ccc(-c4cccnc4)cc3)nn2)c1 | 24300 nM |  | 
10 | COc1ccc(-c2ccc(Cn3cc(-c4ccccc4)nn3)cc2)cn1 | 110000 nM | > 1000 nM | IC50 (Angiopoietin-1 receptor): > 1000 nM
11 | Cc1ccc(-c2cn(Cc3ccc(-c4cccnc4)cc3)nn2)cc1 | 6490 nM |  | IC50 (Angiopoietin-1 receptor): > 1000 nM
12 | COc1ccc(-c2ccc(Cn3cc(-c4ccc(C(F)(F)F)cc4)nn3)cc2)cn1 | 122000 nM | > 1000 nM | 
13 | c1ccc(-c2cn(Cc3ccc(-c4cccnc4)cc3)nn2)cc1 | 12100 nM |  | 
14 | COc1ccc(-c2ccc(Cn3cc(-c4cccc(C)c4)nn3)cc2)cn1 | 43900 nM |  | IC50 (Angiopoietin-1 receptor): > 1000 nM
15 | Cc1cccc(-c2cn(Cc3ccc(-c4cccnc4)cc3)nn2)c1 | 134000 nM | > 1000 nM | 
16 | CNC(=O)c1cc(Oc2ccc(NC(=O)Nc3ccc(Cl)c(C(F)(F)F)c3)cc2)ccn1 [SORAFENIB] | 11700 nM |  | IC50 (LoVo): 250 nM; IC50 (SMMC-7721): 300 nM; IC50 (HeLa): 270 nM; IC50 (A-431): 120 nM; IC50 (PANC-1): 150 nM; IC50 (A549): 80 nM; IC50 (MCF7): 90 nM
